These results are taken from patent publication US11919856B2, “Compounds” (UCL BUSINESS LTD, priority 2018, dated 2024).

“Also recorded” adds a separate entry of the source.

Series [1] concerns the target T1, Z α1-antitrypsin (Homo sapiens, UniProt P01009, E366K/V237A). Description: Intracellular Z α1-antitrypsin polymer formation in CHO-TET-ON-Z-A1AT cells (2C1 antibody). The class given is cell-based. The arrangement: expressed in transfected cells; host or cells: CHO Tet-On (CHO-K1) cells, doxycycline-induced. The procedure: CHO Tet-On cells that conditionally express Z α1-antitrypsin (Ordóñez A et al. Hepatology 2013; 57(5):2049-60.) were simultaneously treated with 0.5 μg/mL […] and various concentrations of compounds for 48 hours in 6 well plates. Cells without doxycycline or treated with 1% v/v DMSO acted as controls. The cells were lysed and intracellular Z α1-antitrypsin polymer was evaluated by ELISA sandwich with the 2C1 monoclonal antibody (Miranda et al. Hepatology. 2010; 52:1078-88). Newly synthesised α1-antitrypsin was evaluated by growing cells induced to express Z α1-antitrypsin in DMEM without methionine (Met) and cysteine (Cys) for 1 h and then labelling with 1.3 MBq of ^35S-Met/Cys for 15 min. The cells were then rinsed and incubated in chase medium containing an excess of unlabeled Met and Cys for 0, 2 and 6 h. After the chase period, the medium was collected and cells were harvested. α1-Antitrypsin from the medium and cell lysates was immunoprecipitated with a polyclonal α1-antitrypsin antibody or the 2C1 monoclonal antibody that detects polymers by splitting each sample in two equal parts. Radiolabelled proteins were re-suspended in SDS loading buffer, boiled for 5 min, separated by 10% w/v acrylamide SDS-PAGE, and quantified by autoradiography.
CHO-K1 cells were incubated with/without doxycycline to express α1-antitrypsin and with or without the small molecule of interest, fixed with 3.7% v/v formaldehyde in PBS for 15 min, permeabilised with 0.1% v/v Triton X-100 in PBS and then blocked with 10% v/v FBS in PBS for 30 min. Cells were labelled with a rabbit polyclonal antibody to total α1-antitrypsin or the 2C1 monoclonal antibody that detects polymers followed by Texan red conjugated anti-rabbit or FITC labelled anti-mouse secondary antibodies respectively. Cells were imaged using an Axiovert 200 widefield fluorescence microscope (Carl Zeiss Microimaging Inc., Thornwood, NY).
Its ability to block Z α1-antitrypsin polymerisation in the ER during folding was assessed by adding Compound 1 to CHO-TET-ON-Z-A1AT cells (Ordóñez et al. Hepatology. 2013; 57(5):2049-60) with simultaneous induction of Z α1-antitrypsin expression using doxycycline. […] To investigate whether in addition to blocking polymerisation, Compound 1 was also able to increase secretion of Z α1-antitrypsin, Z α1-antitrypsin expression was induced in CHO-TET-ON-Z-A1AT cells, Compound 1 was added, and the total Z α1-antitrypsin in the supernatant was measured by immunoassay after 6 hours.

The next series has as its system Z α1-antitrypsin polymer. As to the kind of experiment: Liver polymer levels in Z α1-antitrypsin transgenic mice (2C1 staining). The following applies: 100 mg/kg three times a day for 20 days. The class given is in vivo, human. How it is done: Since Compound 1 blocks polymer formation in cells the effect of dosing Compound 1 on liver polymer levels was explored. It has recently been shown that Z α1-antitrypsin polymers formed in CHO-TET-ON-Z-A1AT and ZZ-iPSC-hepatocytes are cleared from cells with a t½ of between 8 and 48 hours depending on whether they partition to the soluble or insoluble fractions. […] Compound 1 was therefore dosed at 100 mg/kg three times a day as above for 20 days. On days 15 and 21 of dosing, changes of monomeric Z α1-antitrypsin plasma samples were determined as above, and increases of 7- to 8-fold over the pre-dosing baseline levels were observed, similar to the effect in animals dosed for 3 or 6 days, consistent with sustained target engagement through the dosing period. Liver polymer levels were investigated by staining with 2C1 anti-polymer monoclonal antibody and were scored blinded either by a pathologist or by quantification using an algorithm to measure all areas of positive staining. There was no difference observed in total liver polymer load via manual or quantitative scoring.
To investigate whether there is a subpopulation of polymer in the liver that was responding to compound over the time frame of the experiment, areas of staining were divided into low, medium and high intensity regions and scored separately for response to compound. […]

The target of series [2] is T1, Z α1-antitrypsin. As to the kind of experiment: Rapid refolding (non-denaturing PAGE). It is filed as biochemical. The following applies: snap dilution refolding. The procedure: Refolding of α1-antitrypsin in vitro is not fully reversible, due to loss of material from amorphous aggregation, polymerisation and misfolding. These contributions cannot be readily deconvoluted by bulk spectroscopic methods and therefore refolding was evaluated by non-denaturing PAGE. M and Z α1-antitrypsin at 9.6 mg/ml were denatured in 6 M urea and 15 mM sodium phosphate pH 8.0 for 4 hours at room temperature, and 1.25 μl was snap refolded into 250 μl PBS containing 0-50 μM Compound 1 and a normalised concentration of 5% v/v DMSO. After incubation for 1 hour at room temperature samples were analysed by Coomassie-stained 3-12% w/v acrylamide Bis-Tris Native PAGE gel (Life Technologies).
Mutations that interfere with the opening of […] or that perturb its interaction with the N-terminal portion of the reactive centre loop alter the ability of serpins to inhibit target proteases. The stoichiometry of inhibition (SI) was determined for M and Z α1-antitrypsin in discontinuous experiments against a model target protease, chymotrypsin. The pre-incubation of both variants with Compound 1 led to a >98% loss of protease inhibitory activity. […]

A short description of another series: Solubility in FaSSIF. The class given is physicochemical.

T1 sequence (P01009 25-418 V237A/E366K): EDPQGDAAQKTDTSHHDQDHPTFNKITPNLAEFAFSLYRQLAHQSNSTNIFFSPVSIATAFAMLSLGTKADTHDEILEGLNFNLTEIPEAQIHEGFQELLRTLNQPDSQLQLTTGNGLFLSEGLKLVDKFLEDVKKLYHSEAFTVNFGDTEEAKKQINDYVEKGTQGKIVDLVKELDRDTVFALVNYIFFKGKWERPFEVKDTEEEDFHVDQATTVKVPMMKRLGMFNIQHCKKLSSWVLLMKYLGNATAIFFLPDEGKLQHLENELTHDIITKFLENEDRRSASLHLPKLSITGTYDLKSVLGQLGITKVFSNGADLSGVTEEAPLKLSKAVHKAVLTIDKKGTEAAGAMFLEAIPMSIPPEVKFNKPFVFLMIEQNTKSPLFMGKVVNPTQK

For the compound `CCC[C@@H](NC(=O)c1cccc2c1CC(=O)N2)[C@@H](O)c1cccc(F)c1C` [Compound 1, N-[(1S,2R)-1-(3-fluoro-2-methylphenyl)-1-hydroxypentan-2-yl]-2-oxo-2,3-dihydro-1H-indole-4-carboxamide], the “polymer formation in Z α1-antitrypsin expressing cells” value on Z α1-antitrypsin [1] (10 μM, CHO-TET-ON-Z-A1AT cells, tunicamycin experiment) is “completely abrogated”. Also, the IC50 at Z α1-antitrypsin [1] (CHO-TET-ON-Z-A1AT cells, doxycycline induction, 2C1 antibody, read-out: pIC50, intracellular formation of Z α1-antitrypsin polymers (converted)) is 501 nM. Further, on Z α1-antitrypsin [1] (CHO-TET-ON-Z-A1AT cells, in comparison with controls), the “intracellular formation of Z α1-antitrypsin polymers” value is “completely blocked”. In addition, on Z α1-antitrypsin [1] (read-out: cellular activity at blocking Z α1-antitrypsin polymerisation (pEC50) (converted)), the EC50 was 501 nM. Besides, the “liver polymer staining in low, medium and high intensity regions” value in the series on Z α1-antitrypsin polymer was “No effect”. Also, the “total liver polymer load” value in the series on Z α1-antitrypsin polymer (manual or quantitative scoring) was “no difference; also recorded: no reduction”. In addition, the “anodally-shifted migration (misfolded byproduct) of refolded Z variant” value on Z α1-antitrypsin [2] is “corrected at stoichiometric concentrations and above”. Further, the “solubility of amorphous drug substance in FaSSIF” value in “Solubility in FaSSIF” is “good solubility”.
